Measured values reported in ChEMBL document CHEMBL3808354, “Synthesis and biological evaluation of oxindole linked indolyl-pyrimidine derivatives as potential cytotoxic agents” (Bioorg Med Chem Lett, 2016).
Calls of active or inactive are those of the source. The calls are words filed in the database; no cut-off is given here.

Tests used:
[1] = Cytotoxicity against human PA1 cells assessed as decrease in cell viability after 48 hrs by MTT assay; type: functional, cell-based; conditions: PA-1, 48 h
MCF7 = experiment: Cytotoxicity against human MCF7 cells assessed as decrease in cell viability after 48 hrs by MTT assay; type: functional, cell-based; conditions: MCF7, 48 h
LNCaP = experiment: Cytotoxicity against human LNCAP cells assessed as decrease in cell viability after 48 hrs by MTT assay; type: functional, cell-based
[2] = Cytotoxicity against human U87MG cells assessed as decrease in cell viability after 48 hrs by MTT assay; type: functional, cell-based, U-87MG ATCC; conditions: U-87 MG
[3] = Cytotoxicity against human RWPE1 cells assessed as decrease in cell viability after 48 hrs by MTT assay; type: cell-based; conditions: RWPE-1, 48 h
[4] = Selectivity ratio of IC50 for human RWPE1 cells to IC50 for human LNCAP cells; type: ADME, cell-based; conditions: RWPE1 cells and LNCaP cells, read-out: Ratio IC50
[5] = Cell cycle arrest in human PA1 cells assessed as accumulation at G2/M phase at 1 uM after 24 hrs by propidium iodide staining based flow cytometry (reference value: 15.72%); type: functional; conditions: PA-1
[6] = Cell cycle arrest in human PA1 cells assessed as accumulation at G2/M phase after 24 hrs by propidium iodide staining based flow cytometry; type: functional; conditions: PA-1
PA-1 [7] = experiment: Induction of apoptosis in human PA1 cells after 24 hrs by annexin V-FITC/propidium iodide staining based flow cytometry; type: functional, cell-based
[8] = Cell cycle arrest in human PA1 cells assessed as accumulation at S phase at 2.5 uM after 24 hrs by propidium iodide staining based flow cytometry (reference value: 10.25%); type: functional; conditions: PA-1
PA-1 [9] = experiment: Induction of apoptosis in human PA1 cells assessed as early apoptotic cells at 1 uM after 24 hrs by annexin V-FITC/propidium iodide staining based flow cytometry (reference value: 1.65%); type: functional
PA-1 [10] = experiment: Induction of morphological changes in human PA1 cells assessed as cell wall deformation at 1 to 2.5 uM after 24 hrs by inverted phase contrast microscopy; type: functional, cell-based
PA-1 [11] = experiment: Induction of apoptosis in human PA1 cells assessed as necrotic cells at 2.5 uM after 24 hrs by annexin V-FITC/propidium iodide staining based flow cytometry (reference value: 0.10%); type: functional
PA-1 [12] = experiment: Induction of cell death in human PA1 cells assessed as membrane blebbing at 1 to 2.5 uM after 24 hrs by acridine orange/ethidium bromide staining based fluorescence microscopy; type: functional
PA-1 [13] = experiment: Induction of apoptosis in human PA1 cells assessed as necrotic cells at 1 uM after 24 hrs by annexin V-FITC/propidium iodide staining based flow cytometry (reference value: 0.10%); type: functional
PA-1 [14] = experiment: Induction of apoptosis in human PA1 cells assessed as viable cells at 1 uM after 24 hrs by annexin V-FITC/propidium iodide staining based flow cytometry (reference value: 97.01%); type: functional; conditions: PA-1, 24 h, read-out: Activity
PA-1 [15] = experiment: Induction of cell death in human PA1 cells assessed as chromatin condensation at 1 to 2.5 uM after 24 hrs by acridine orange/ethidium bromide staining based fluorescence microscopy; type: functional
PA-1 [16] = experiment: Induction of cell death in human PA1 cells assessed as apoptotic body formation at 1 to 2.5 uM after 24 hrs by acridine orange/ethidium bromide staining based fluorescence microscopy; type: functional
PA-1 [17] = experiment: Induction of apoptosis in human PA1 cells assessed as viable cells at 2.5 uM after 24 hrs by annexin V-FITC/propidium iodide staining based flow cytometry (reference value: 97.01%); type: functional; conditions: PA-1, 24 h, read-out: Activity
[18] = Cell cycle arrest in human PA1 cells assessed as accumulation at G0/G1 phase at 1 uM after 24 hrs by propidium iodide staining based flow cytometry (reference value: 73.23%); type: functional; conditions: PA-1
[19] = Cell cycle arrest in human PA1 cells assessed as accumulation at S phase at 1 uM after 24 hrs by propidium iodide staining based flow cytometry (reference value: 10.25%); type: functional; conditions: PA-1
PA-1 [20] = experiment: Antiproliferative activity against human PA1 cells assessed as reduction in viable cells at 1 to 2.5 uM after 24 hrs by inverted phase contrast microscopy; type: functional, cell-based
PA-1 [21] = experiment: Induction of morphological changes in human PA1 cells assessed as cell shrinking at 1 to 2.5 uM after 24 hrs by inverted phase contrast microscopy; type: functional, cell-based
[22] = Cell cycle arrest in human PA1 cells assessed as accumulation at G0/G1 phase at 2.5 uM after 24 hrs by propidium iodide staining based flow cytometry (reference value: 73.23%); type: functional; conditions: PA-1
[23] = Cell cycle arrest in human PA1 cells assessed as accumulation at G2/M phase at 2.5 uM after 24 hrs by propidium iodide staining based flow cytometry (reference value: 15.72%); type: functional; conditions: PA-1
PA-1 [24] = experiment: Induction of apoptosis in human PA1 cells assessed as late apoptotic cells at 2.5 uM after 24 hrs by annexin V-FITC/propidium iodide staining based flow cytometry (reference value: 1.24%); type: functional
PA-1 [25] = experiment: Induction of apoptosis in human PA1 cells assessed as early apoptotic cells at 2.5 uM after 24 hrs by annexin V-FITC/propidium iodide staining based flow cytometry (reference value: 1.65%); type: functional
PA-1 [26] = experiment: Induction of apoptosis in human PA1 cells assessed as late apoptotic cells at 1 uM after 24 hrs by annexin V-FITC/propidium iodide staining based flow cytometry (reference value: 1.24%); type: functional
PA-1 [27] = experiment: Induction of cell death in human PA1 cells assessed as cell shrinking at 1 to 2.5 uM after 24 hrs by acridine orange/ethidium bromide staining based fluorescence microscopy; type: functional

COc1ccc(-c2ccnc(Nc3ccc4c(c3)c(/C=C3/C(=O)Nc5ccccc53)cn4C)n2)cc1
IC50 [1]: > 100 µM | IC50 (MCF7): > 100 µM | IC50 (LNCaP): > 100 µM | IC50 [2]: > 100 µM

O=c1[nH]cc(F)c(=O)[nH]1 [FLUOROURACIL]
IC50 [1]: 8.51 µM | IC50 (MCF7): 32.3 µM | IC50 (LNCaP): 47.2 µM | IC50 [2]: 15.5 µM

Cn1cc(/C=C2/C(=O)Nc3ccccc32)c2cc(Nc3nccc(-c4ccccc4)n3)ccc21
IC50 [1]: 17.3 µM | IC50 (MCF7): 42.9 µM | IC50 [3]: 95.6 µM | IC50 (LNCaP): 13.4 µM | IC50 [2]: 14.1 µM

Cc1ccc(-c2ccnc(Nc3ccc4c(c3)c(/C=C3/C(=O)Nc5ccccc53)cn4C)n2)cc1
IC50 [1]: > 100 µM | IC50 (MCF7): > 100 µM | IC50 (LNCaP): > 100 µM | IC50 [2]: > 100 µM

Cn1cc(/C=C2/C(=O)Nc3ccccc32)c2cc(Nc3nccc(-c4cccnc4)n3)ccc21
IC50 [1]: 18.1 µM | IC50 (MCF7): 46.6 µM | IC50 [3]: 69.8 µM | IC50 (LNCaP): 14.2 µM | IC50 [2]: 14.8 µM

Cn1cc(/C=C2/C(=O)Nc3ccccc32)c2cc(Nc3nccc(-c4ccc(O)cc4)n3)ccc21
IC50 [1]: 9.27 µM | IC50 (MCF7): 39.6 µM | IC50 [3]: 58.4 µM | IC50 (LNCaP): 10.8 µM | IC50 [2]: 13.2 µM

CCN(CC)CCNC(=O)c1c(C)[nH]c(/C=C2\C(=O)Nc3ccc(F)cc32)c1C [SUNITINIB]
IC50 [1]: 7.97 µM | IC50 (MCF7): 23.8 µM | IC50 [3]: 23 µM | IC50 (LNCaP): 12.6 µM | IC50 [2]: 59.8 µM

Cn1cc(/C=C2/C(=O)Nc3ccccc32)c2cc(Nc3nccc(-c4ccc(Cl)cc4Cl)n3)ccc21
IC50 [1]: > 100 µM | IC50 (MCF7): > 100 µM | IC50 (LNCaP): > 100 µM | IC50 [2]: 36.8 µM

Cn1cc(/C=C2/C(=O)Nc3ccccc32)c2cc(Nc3nccc(-c4ccc(F)cc4)n3)ccc21
IC50 [1]: 31.8 µM | selectivity ratio [4]: 10.3 | IC50 (MCF7): 48.1 µM | IC50 [3]: 168 µM | IC50 (LNCaP): 16.3 µM | IC50 [2]: 16.4 µM

Cn1cc(/C=C2/C(=O)Nc3ccccc32)c2cc(Nc3nccc(-c4ccc(Cl)cc4)n3)ccc21
Activity [5]: 17.6% | IC50 [1]: 2.43 µM | Activity [6]: Dose-dependent effect | Activity (PA-1 [7]): Dose-dependent effect | Activity [8]: 10.8% | Activity (PA-1 [9]): 16.68% | Activity (PA-1 [10]): Active | Activity (PA-1 [11]): 3.03% | Activity (PA-1 [12]): Active | Activity (PA-1 [13]): 0.4% | IC50 (MCF7): 23.5 µM | viability at 1 µM (PA-1 [14]): 75.5% | Activity (PA-1 [15]): Active | Activity (PA-1 [16]): Active | viability at 2.5 µM (PA-1 [17]): 51.8% | Activity [18]: 67.8% | IC50 [3]: 41.1 µM | Activity [19]: 13.6% | Activity (PA-1 [20]): Active | Activity (PA-1 [21]): Active | Activity [22]: 57.1% | IC50 (LNCaP): 6.59 µM | Activity [23]: 31.1% | IC50 [2]: 5.82 µM | Activity (PA-1 [24]): 20.01% | Activity (PA-1 [25]): 25.18% | Activity (PA-1 [26]): 7.42% | Activity (PA-1 [27]): Active

Cn1cc(/C=C2/C(=O)Nc3ccccc32)c2cc(Nc3nccc(-c4cccs4)n3)ccc21
IC50 [1]: 7.94 µM | IC50 (MCF7): 30.8 µM | IC50 [3]: 64.9 µM | IC50 (LNCaP): 10.3 µM | IC50 [2]: 7.18 µM

Cn1cc(/C=C2/C(=O)Nc3ccccc32)c2cc(Nc3nccc(-c4ccc(C(F)(F)F)cc4)n3)ccc21
IC50 [1]: 63.9 µM | IC50 (MCF7): 65.2 µM | IC50 (LNCaP): > 100 µM | IC50 [2]: 26 µM
